In patent US10669283B2, “Compound and pharmacologically acceptable salt thereof” (MEIJI SEIKA PHARMA CO., LTD., priority 2016, dated 2020):
Read-outs that look alike come from different tables or passages of the source.

Assays:
[1] = system: PDE4; experiment: PDE4 inhibition, scintillation proximity assay (SPA); type: biochemical
Procedure, shortened: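 Compound pre-diluted 1:10 in 50 mM Tris-HCl pH 7.4, 8.3 mM MgCl2, 1.7 mM EGTA, 3 mg/mL BSA, then incubated with PDE4 and [2,8-3H]-cAMP for 120 min at room temperature. Product captured on ZnSO4-containing YSi-SPA beads for 15 min; radioactivity counted against no-enzyme blank and DMSO control.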

[2] = Hepatic metabolic stability (rat liver microsome method); type: in vitro ADME; details: rat liver microsomes 0.5 mg/mL, test substance 1 μM, NADPH 1 mM, 37° C., 30 minutes
Method: Metabolic stability in rat liver microsomes was evaluated by the following method. In 100 mM of potassium phosphate buffer solution (pH 7.4), liver microsomes (concentration at reaction: 0.5 mg/mL) and the test substance (concentration at reaction: 1 μM) were preincubated at 37° C. Five minutes later, 100 mM of potassium phosphate buffer (pH 7.4) solution of NADPH (concentration at reaction: 1 mM) was mixed thereto to start the reaction. After a predetermined time passed, acetonitrile was mixed to the reaction mixture to stop the reaction. Here, the reaction time was 0 and 30 minutes, and drug concentration measurement was performed for each time period using LC-MS. The % remaining value of the test compound was calculated from the value for 0 minutes and the value for 30 minutes, using the calculation formula below: % Remaining=(Value for 30 Minutes/Value for 0 Minutes)×100
The results of measuring the rat liver microsome metabolic Stability (% remaining for 30-minute reaction) for the test compound by the above method were evaluated in accordance with the following evaluated basis; A: a % remaining rate of 75% or more, B: 60% or more and less than 75%, C: 45% or more and less than 60%, and D: less than 45%.

[3] = scintillation proximity assay, class symbols, read-out: PDE4 Inhibitory Activity
[4] = scintillation proximity assay (SPA), evaluated as classes A, B, C, read-out: PDE4 Inhibitory Activity (concentration for the inhibition rate of 50%)

Row | SMILES | IC50 [1, 3] [nM] | Residual ratio (% remaining for 30-minute reaction) [2] | IC50 [1, 4] [nM]
1 | OCc1cccnc1Oc1ccc(-c2nccs2)c2oc(N3CC4CC(C3)N4)nc12 [Example 376, (2-((2-(3,6-diazabicyclo[3.1.1]heptan-3-yl)-7-(thiazol-2-yl)benzo[d]oxazol-4-yl)oxy)pyridin-3-yl)methanol] | < 100 | A (a % remaining rate of 75% or more) | 
2 | CC(O)(CO)C(F)(F)Oc1ccc(-c2nccs2)c2oc(N3CC4CC(C3)N4)nc12 (single isomer, unassigned) [Example 365, 3-((2-(3,6-diazabicyclo [3.1.1]heptan-3-yl)-7-(thiazol-2-yl)benzo[d]oxazol-4-yl)oxy)-3,3-difluoro-2-methylpropane-1,2-diol] | < 100 | A (a % remaining rate of 75% or more) | 
3 | OCC(F)(F)Oc1ccc(-c2nccs2)c2oc(N3CC4CC(C3)N4O)nc12 [Example 374, 3-(4-(1,1-difluoro-2-hydroxyethoxy)-7-(thiazol-2-yl)benzo [d]oxazol-2-yl)-3,6-diazabicyclo[3.1.1] heptan-6-ol] | < 100 | B (60% or more and less than 75%) | 
4 | NC(=O)c1ccc(-c2nccs2)c2oc(N3CC4CC(C3)N4)nc12 [Example 354, 2-(3,6-diazabicyclo [3.1.1]heptan-3-yl)-7-(thiazol-2-yl)benzo[d] oxazole-4-carboxamide] | < 100 | A (a % remaining rate of 75% or more) | 
5 | CC(O)(CO)C(F)(F)Oc1ccc(-c2nccs2)c2oc(N3CC4CC(C3)N4)nc12 (single isomer, unassigned) [Example 364, 3-((2-(3,6-diazabicyclo [3.1.1]heptan-3-yl)-7-(thiazol-2-yl)benzo[d]oxazol-4-yl)oxy)-3,3-difluoro-2-methylpropane-1,2-diol] | < 100 | A (a % remaining rate of 75% or more) | 
6 | O=S(=O)(c1ccc(-c2nccs2)c2oc(N3CC4CC(C3)N4)nc12)N1CCOCC1 [Example 391, 2-(3,6-diazabicyclo [3.1.1]heptan-3-yl)-4-(morpholino-sulfonyl)-7-(thiazol-2-yl)benzo [d]oxazole] | < 100 | B (60% or more and less than 75%) | 
7 | FC(F)(F)C(OCc1nnn[nH]1)c1ccc(-c2nccs2)c2oc(N3CC4CC(C3)N4)nc12 (stereo not drawn) [Example 231, 4-(1-((1H-tetrazol-5-yl)methoxy)-2,2,2-trifluoroethyl)-2-(3,6-diazabicyclo[3.1.1]heptan-3-yl)-7-(thiazol-2-yl)benzo[d]oxazole] |  | A (a % remaining rate of 75% or more) | < 100
8 | OC(c1cc(-c2nccs2)c2oc(N3CC4CCC(C3)N4)nc2c1)C(F)F (stereo not drawn) [Example 104, 1-(2-(3,8-Diazabicyclo[3.2.1]octan-3-yl)-7-(thiazol-2-yl)benzo[d]oxazol-5-yl)-2,2-difluoroethan-1-ol] |  | B (60% or more and less than 75%) | < 100
9 | COCCNS(=O)(=O)c1ccc(-c2nccs2)c2oc(N3CC4CC(C3)N4)nc12 [Example 387, 2-(3,6-diazabicyclo[3.1.1]heptan-3-yl)-N-(2-methoxyethyl)-7-(thiazol-2-yl)benzo [d]oxazole-4-sulfonamide] | < 100 | A (a % remaining rate of 75% or more) | 
10 | c1cnc(Oc2ccc(-c3nccs3)c3oc(N4CC5CC(C4)N5)nc23)nc1 [Example 338, 2-(3,6-diazabicyclo [3.1.1]heptan-3-yl)-4-(pyrimidin-2-yloxy)-7-(thiazol-2-yl)benzo[d]oxazole] | < 100 | A (a % remaining rate of 75% or more) | 
11 | O=S(=O)(NCCO)c1ccc(-c2nccs2)c2oc(N3CC4CC(C3)N4)nc12 [Example 385, 2-(3,6-diazabicyclo[3.1.1]heptan-3-yl)-N-(2-hydroxyethyl)-7-(thiazol-2-yl) benzo[d]oxazole-4-sulfonamide] | < 100 | A (a % remaining rate of 75% or more) | 
12 | OCC(F)(F)Oc1ccc(-c2ccccn2)c2oc(N3CC4CC(C3)N4)nc12 [Example 315, 2-((2-(3,6-Diazabicyclo[3.1.1]heptan-3-yl)-7-(pyridin-2-yl)benzo[d]oxazol-4-yl)oxy)-2,2-difluoroethan-1-ol] |  | A (a % remaining rate of 75% or more) | < 100
13 | CC(O)C(F)(F)Oc1ccc(-c2nccs2)c2oc(N3CC4CC(C3)N4O)nc12 (single isomer, unassigned) [Example 373, 3-(4-(1,1-difluoro-2-hydroxypropoxy)-7-(thiazol-2-yl)benzo [d]oxazol-2-yl)-3,6-diazabicyclo[3.1.1] heptan-6-ol] | < 100 | B (60% or more and less than 75%) | 
14 | CC(C)(O)C(F)(F)Oc1ccc(-c2ccccn2)c2oc(N3CC4CCC(C3)N4)nc12 [Example 317, 1-((2-(3,8-Diazabicyclo[3.2.1]octan-3-yl)-7-(pyridin-2-yl)benzo[d]oxazol-4-yl)oxy)-1,1-difluoro-2-methylpropan-2-ol] |  | A (a % remaining rate of 75% or more) | < 100
15 | CC(O)C(F)(F)Oc1ccc(-c2nccs2)c2oc(N3CC4CC(C3)N4O)nc12 (single isomer, unassigned) [Example 372, 3-(4-(1,1-difluoro-2-hydroxypropoxy)-7-(thiazol-2-yl)benzo [d]oxazol-2-yl)-3,6-diazabicyclo[3.1.1] heptan-6-ol] | < 100 | B (60% or more and less than 75%) | 
16 | OC1CC(Oc2ccc(-c3nccs3)c3oc(N4CC5CC(C4)N5)nc23)C1 (stereo not drawn) [Example 285, 3-((2-(3,6-Diazabicyclo[3.1.1]heptan-3-yl)-7-(thiazol-2-yl)benzo[d]oxazol-4-yl)oxy)cyclobutan-1-ol] |  | A (a % remaining rate of 75% or more) | < 100
17 | OCC(F)(F)Oc1ccc(-c2ccc(F)cn2)c2oc(N3CC4CC(C3)N4)nc12 [Example 319, 2-((2-(3,6-Diazabicyclo[3.1.1]heptan-3-yl)-7-(5-fluoropyridin-2-yl)benzo[d]oxazol-4-yl)oxy)-2,2-difluoroethan-1-ol] |  | A (a % remaining rate of 75% or more) | < 100
18 | c1cnc(Oc2ccc(-c3nccs3)c3oc(N4CC5CC(C4)N5)nc23)cn1 [Example 339, 2-(3,6-diazabicyclo[3.1.1]heptan-3-yl)-4-(pyrazin-2-yloxy)-7-(thiazol-2-yl)benzo [d]oxazole] | < 100 | B (60% or more and less than 75%) | 
19 | CC(C)(O)C(F)(F)Oc1ccc(-c2ncccn2)c2oc(N3CC4CCC(C3)N4)nc12 [Example 330, 1-((2-(3,8-diazabicyclo [3.2.1]octan-3-yl)-7-(pyrimidin-2-yl)benzo [d]oxazol-4-yl)oxy)-1,1-difluoro-2-methylpropan-2-ol] | < 100 | A (a % remaining rate of 75% or more) | 
20 | Cc1nsc(-c2ccc(OC(F)(F)C(C)(C)O)c3nc(N4CC5CCC(C4)N5)oc23)n1 [Example 333, 1-((2-(3,8-diazabicyclo [3.2.1]octan-3-yl)-7-(3-methyl-1,2,4-thiadiazol-5-yl)benzo[d]oxazol-4-yl)oxy)-1,1-difluoro-2-methylpropan-2-ol] | 100 to 1000 | B (60% or more and less than 75%) | 
21 | CS(=O)(=O)c1ccc(Oc2ccc(-c3nccs3)c3oc(N4CC5CC(C4)N5)nc23)nc1 [Example 352, 2-(3,6-diaza-bicyclo[3.1.1]heptan-3-yl)-4-((5-(methylsulfonyl)pyridin-2-yl)oxy)-7-(thiazol-2-yl)benzo [d]oxazole] | < 100 | A (a % remaining rate of 75% or more) | 
22 | c1csc(-c2ccc(N3CCOCC3)c3nc(N4CC5CC(C4)N5)oc23)n1 [Example 369, 2-(3,6-diazabicyclo[3.1.1]heptan-3-yl)-4-morpholino-7-(thiazol-2-yl) benzo[d]oxazole] | < 100 | B (60% or more and less than 75%) | 
23 | CCNC(=O)c1ccc(-c2nccs2)c2oc(N3CC4CC(C3)N4)nc12 [Example 358, 2-(3,6-diazabicyclo [3.1.1]heptan-3-yl)-N-ethyl-7-(thiazol-2-yl) benzo[d]oxazole-4-carboxamide] | < 100 | A (a % remaining rate of 75% or more) | 
24 | FC(F)(F)Oc1ccc(-c2nccs2)c2oc(N3CC4CC(C3)N4)nc12 [Example 29, 2-(3,6-Diazabicyclo[3.1.1]heptan-3-yl)-7-(thiazol-2-yl)-4-(trifluoromethoxy)benzo[d]oxazole] |  | B (60% or more and less than 75%) | < 100
